Common to all, as to assay type: cell-based
In one assay the target is T1, human TLR8 (Homo sapiens, UniProt Q9NR97).
T1 construct: host or cells: HEK-Blue cells
T1 sequence (Q9NR97 27-1041): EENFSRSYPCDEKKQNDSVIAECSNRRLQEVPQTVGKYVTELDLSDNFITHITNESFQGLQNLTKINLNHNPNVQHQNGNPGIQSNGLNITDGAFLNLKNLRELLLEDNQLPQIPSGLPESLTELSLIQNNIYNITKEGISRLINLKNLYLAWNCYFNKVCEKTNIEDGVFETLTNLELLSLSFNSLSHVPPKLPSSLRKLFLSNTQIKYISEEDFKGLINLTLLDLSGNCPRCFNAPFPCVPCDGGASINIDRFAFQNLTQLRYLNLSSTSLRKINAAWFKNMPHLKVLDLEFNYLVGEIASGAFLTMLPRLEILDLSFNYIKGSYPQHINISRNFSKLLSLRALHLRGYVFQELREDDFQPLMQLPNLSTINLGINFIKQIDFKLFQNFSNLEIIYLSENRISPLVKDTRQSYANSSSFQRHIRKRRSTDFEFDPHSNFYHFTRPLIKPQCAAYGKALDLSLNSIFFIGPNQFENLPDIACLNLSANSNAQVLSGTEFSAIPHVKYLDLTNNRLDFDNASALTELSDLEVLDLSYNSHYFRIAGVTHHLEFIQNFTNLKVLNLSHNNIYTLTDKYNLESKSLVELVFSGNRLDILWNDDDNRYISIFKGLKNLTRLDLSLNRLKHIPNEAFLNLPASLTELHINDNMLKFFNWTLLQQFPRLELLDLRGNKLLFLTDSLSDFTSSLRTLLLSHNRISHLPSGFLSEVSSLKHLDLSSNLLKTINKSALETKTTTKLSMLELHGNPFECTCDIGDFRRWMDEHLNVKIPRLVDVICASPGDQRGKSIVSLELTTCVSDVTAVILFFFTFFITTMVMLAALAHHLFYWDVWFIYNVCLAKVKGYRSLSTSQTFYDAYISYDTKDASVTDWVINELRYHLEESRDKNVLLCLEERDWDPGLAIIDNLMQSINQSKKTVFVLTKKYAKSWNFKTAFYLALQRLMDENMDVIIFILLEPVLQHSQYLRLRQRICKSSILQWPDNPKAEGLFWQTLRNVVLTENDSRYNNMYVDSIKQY
Put plainly: TLR8 inhibition reporter assay (HEK-Blue SEAP). To be noted: HEK-Blue cells overexpressing human TLR8, stimulated with R848 15.9 μM, 22 hour incubation. In short, it runs like this: (§1)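 Test compounds, final 0.05 nM–50 μM, pre-treat HEK-Blue human TLR7, TLR8 or TLR9 reporter cells before agonist addition (TLR8 R848 15.9 μM; TLR7 gardiquimod 7.5 μM; TLR9 ODN2006 5 nM). Incubation runs 22 h, 37 °C. SEAP detection gives percent inhibition against DMSO and reference-inhibitor controls.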

The next assay addresses T2, human TLR7 (Homo sapiens, UniProt Q9NYK1).
T2 construct: host or cells: HEK-Blue cells
T2 sequence (Q9NYK1 27-1049): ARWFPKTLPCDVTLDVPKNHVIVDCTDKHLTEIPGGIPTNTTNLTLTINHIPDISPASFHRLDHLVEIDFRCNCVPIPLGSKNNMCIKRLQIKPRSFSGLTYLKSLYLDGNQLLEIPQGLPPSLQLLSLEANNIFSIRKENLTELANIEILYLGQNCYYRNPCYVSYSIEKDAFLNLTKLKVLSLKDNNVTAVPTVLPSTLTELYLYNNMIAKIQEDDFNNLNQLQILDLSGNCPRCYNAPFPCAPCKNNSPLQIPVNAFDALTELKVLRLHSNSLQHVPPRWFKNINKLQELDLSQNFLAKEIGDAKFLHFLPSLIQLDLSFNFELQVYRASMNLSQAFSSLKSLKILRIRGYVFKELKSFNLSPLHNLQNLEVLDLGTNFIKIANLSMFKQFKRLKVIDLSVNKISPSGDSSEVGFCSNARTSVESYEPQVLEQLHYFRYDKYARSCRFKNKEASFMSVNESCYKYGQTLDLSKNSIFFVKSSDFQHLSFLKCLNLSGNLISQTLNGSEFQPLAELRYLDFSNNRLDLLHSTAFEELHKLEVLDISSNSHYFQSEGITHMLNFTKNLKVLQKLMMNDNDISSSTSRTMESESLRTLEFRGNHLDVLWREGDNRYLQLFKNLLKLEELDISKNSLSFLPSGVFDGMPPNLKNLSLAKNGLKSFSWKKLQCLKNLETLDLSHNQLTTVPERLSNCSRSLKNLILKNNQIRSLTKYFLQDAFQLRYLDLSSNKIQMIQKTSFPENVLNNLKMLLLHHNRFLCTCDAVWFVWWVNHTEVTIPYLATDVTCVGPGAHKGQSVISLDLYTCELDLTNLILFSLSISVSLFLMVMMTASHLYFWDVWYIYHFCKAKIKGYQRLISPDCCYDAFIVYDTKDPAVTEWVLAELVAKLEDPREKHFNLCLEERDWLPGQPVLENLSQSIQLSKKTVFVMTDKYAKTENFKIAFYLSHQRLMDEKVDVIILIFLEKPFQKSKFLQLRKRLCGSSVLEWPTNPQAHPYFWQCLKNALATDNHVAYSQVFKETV
In words: TLR7 inhibition reporter assay (HEK-Blue SEAP). The following applies: HEK-Blue cells overexpressing human TLR7, stimulated with gardiquimod 7.5 μM, 22 hour incubation. In short, it runs like this:
as §1

Another assay concerns the target T3, human TLR9 (Homo sapiens, UniProt Q9NR96).
T3 construct: host or cells: HEK-Blue cells
T3 sequence (Q9NR96 26-1032): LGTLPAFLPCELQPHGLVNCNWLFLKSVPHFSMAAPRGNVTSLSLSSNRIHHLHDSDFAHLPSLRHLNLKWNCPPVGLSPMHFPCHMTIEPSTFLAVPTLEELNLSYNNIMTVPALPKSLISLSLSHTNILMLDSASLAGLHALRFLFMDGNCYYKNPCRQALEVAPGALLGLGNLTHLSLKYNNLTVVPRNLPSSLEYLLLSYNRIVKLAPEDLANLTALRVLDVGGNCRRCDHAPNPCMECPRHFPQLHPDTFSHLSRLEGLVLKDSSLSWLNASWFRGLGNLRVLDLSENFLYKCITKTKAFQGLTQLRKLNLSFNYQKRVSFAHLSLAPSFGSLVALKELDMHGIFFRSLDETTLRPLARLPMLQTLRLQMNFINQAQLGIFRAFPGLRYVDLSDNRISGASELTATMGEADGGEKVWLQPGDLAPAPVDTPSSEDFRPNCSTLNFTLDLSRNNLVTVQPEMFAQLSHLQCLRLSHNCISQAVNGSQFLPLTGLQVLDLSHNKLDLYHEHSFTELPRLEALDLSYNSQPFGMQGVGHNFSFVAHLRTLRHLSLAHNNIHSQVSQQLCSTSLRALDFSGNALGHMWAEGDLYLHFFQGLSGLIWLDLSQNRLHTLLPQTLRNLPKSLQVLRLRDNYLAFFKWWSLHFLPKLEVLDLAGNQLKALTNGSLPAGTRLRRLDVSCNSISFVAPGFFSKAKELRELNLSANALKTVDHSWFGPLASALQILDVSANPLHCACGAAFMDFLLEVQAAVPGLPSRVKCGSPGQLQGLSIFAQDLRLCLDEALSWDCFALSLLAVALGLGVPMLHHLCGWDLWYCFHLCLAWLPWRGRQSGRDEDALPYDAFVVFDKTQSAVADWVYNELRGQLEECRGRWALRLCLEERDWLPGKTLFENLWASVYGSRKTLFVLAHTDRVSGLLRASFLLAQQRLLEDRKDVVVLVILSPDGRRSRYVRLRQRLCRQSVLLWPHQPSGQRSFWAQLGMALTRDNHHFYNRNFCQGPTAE
In words: TLR9 inhibition reporter assay (HEK-Blue SEAP). The following applies: HEK-Blue cells overexpressing human TLR9, stimulated with ODN2006 5 nM, 22 hour incubation. Put shortly:
as §1
(In a reporter assay the amount or activity of a reporter protein is the signal.)

Broadly, the IC50 is the midpoint of a concentration-inhibition curve. A low value points to greater potency in that assay.

On to `COc1ccc(-c2[nH]c3ccc(OCC(=O)NCCN)cc3c2C(C)C)cc1OC` [Example 117, N-(2-aminoethyl)-2-((2-(3,4-dimethoxyphenyl)-3-isopropyl-1H-indol-5-yl)oxy)acetamide], for which the IC50 turned out to be 36.1 nM against human TLR8, 120 nM against human TLR7 and 1570 nM on human TLR9.
Turning to `CCc1c(-c2ccc(OC)c(OC)c2)[nH]c2ccc(OC3CCN(C4CCN(CC(C)C)CC4)CC3)cc12` [Example 118, 2-(3,4-dimethoxyphenyl)-3-ethyl-5-((1′-isobutyl-[1,4′-bipiperidin]-4-yl)oxy)-1H-indole], the IC50 against human TLR8 is 9 nM; at human TLR7 it was 380 nM; at human TLR9 it was 309 nM.
The corresponding values for `COc1ccc(-c2[nH]c3ccc(OCC(=O)NC[C@H]4CCNC4)cc3c2C(C)C)cc1OC` [Example 119, (S)-2-((2-(3,4-dimethoxyphenyl)-3-isopropyl-1H-indol-5-yl)oxy)-N-(pyrrolidin-3-ylmethyl)acetamide] are 177 nM, 109 nM and 2700 nM.
For `COc1ccc(-c2[nH]c3ccc(OCC(=O)N4CCC[C@H](N)C4)cc3c2C(C)C)cc1OC` [Example 120, (S)-1-(3-aminopiperidin-1-yl)-2-((2-(3,4-dimethoxyphenyl)-3-isopropyl-1H-indol-5-yl)oxy)ethan-1-one] the same measures were 46.9 nM, 95.5 nM and 2660 nM.
`COc1ccc(-c2[nH]c3ccc(OCC(=O)N(C)C4CN5CCC4CC5)cc3c2C(C)C)cc1OC` (stereo not drawn) [Example 121, 2-((2-(3,4-dimethoxyphenyl)-3-isopropyl-1H-indol-5-yl)oxy)-N-methyl-N-((1s,4s)-quinuclidin-3-yl)acetamide]: the IC50 on human TLR8 was 57.7 nM; at human TLR7 it was 26.8 nM; at human TLR9, 3550 nM.
For `COc1ccc(-c2[nH]c3ccc(OCC(=O)N4CCCC(CCN)C4)cc3c2C(C)C)cc1OC` (stereo not drawn) [Example 122, 1-(3-(2-aminoethyl)piperidin-1-yl)-2-((2-(3,4-dimethoxyphenyl)-3-isopropyl-1H-indol-5-yl)oxy)ethan-1-one], the IC50 on human TLR8 amounted to 113 nM; against human TLR7, 328 nM; on human TLR9, 1010 nM.
Regarding `COc1ccc(-c2[nH]c3ccc(OCC(=O)N4CCC[C@]5(CCCC[C@@H]5N)C4)cc3c2C(C)C)cc1OC` [Example 123, 1-((6R,7S)-7-amino-2-azaspiro[5.5]undecan-2-yl)-2-((2-(3,4-dimethoxyphenyl)-3-isopropyl-1H-indol-5-yl)oxy)ethan-1-one], the IC50 at human TLR8 stood at 227 nM; on human TLR7, 164 nM; against human TLR9 it was 2310 nM.
For the compound `COc1ccc(-c2[nH]c3ccc(OCC(=O)NC4CC[C@H]5CC[C@@H]4N5C)cc3c2C(C)C)cc1OC` (stereo partly drawn) [Example 124, 2-((2-(3,4-dimethoxyphenyl)-3-isopropyl-1H-indol-5-yl)oxy)-N-((5S)-8-methyl-8-azabicyclo[3.2.1]octan-2-yl)acetamide], the IC50 came to 51.2 nM against human TLR8, 227 nM on human TLR7 and 4030 nM at human TLR9.
On to `COc1ccc(-c2[nH]c3ccc(OCC(=O)NC4CN5CCC4CC5)cc3c2C(C)C)cc1OC` (stereo not drawn) [Example 125, 2-((2-(3,4-dimethoxyphenyl)-3-isopropyl-1H-indol-5-yl)oxy)-N-((1s,4s)-quinuclidin-3-yl)acetamide], for which the IC50 against human TLR8 came out at 44.4 nM; against human TLR7 it was 19 nM; on human TLR9, 6330 nM.
Consider `COc1ccc(-c2[nH]c3ccc(OCC(=O)NCC4CCCCN4)cc3c2C(C)C)cc1OC` (stereo not drawn) [Example 126, 2-((2-(3,4-dimethoxyphenyl)-3-isopropyl-1H-indol-5-yl)oxy)-N-(piperidin-2-ylmethyl)acetamide], for which the values for the IC50 on human TLR8, on human TLR7 and against human TLR9 were 12.8 nM, 111 nM and 1900 nM, respectively.

The values above are taken from patent publication US12030878B2 (BRISTOL-MYERS SQUIBB COMPANY, priority 2017, dated 2024).
